From US20250221953A1 (The University of Chicago, priority 2022, published 2025)

Columns and labels:
[1] = test system: mouse primary CD8^+ T cells; assay: Phospho antibody array; type: cell-based
Procedure: The quantification for pixel density in each spot of the array was carried out by subtracting background signals from the spot intensity using software ImageJ (ImageJ, RRID: SCR_003070). Please also refer to Resources Table and Table 6 for more details.

mouse CD8^+ T cells [2] = assay: RNA-sequencing of CD8+ T cells with or without TVA (also siNTC / siCreb1); type: cell-based; conditions: 20 μM TVA, 24 h
human primary T cell = assay: IL-2 production of human primary T cells; type: cell-based; conditions: 20 μM TVA (FIG. 17B)
Excerpt: Two preliminary screens were designed and performed.

B16F10 tumor = assay: Mouse tumor model, B16F10; type: in vivo; conditions: B16F10 tumor-bearing C57BL/6 mice on enriched diet vs control diet
Procedure: For C57BL/6 mice and TCR-a KO mice tumor model, mice were anesthetized with isoflurane, shaved the injection site, and then injected subcutaneously in the abdominal flank with 1×10^5 B16F10, MC38, or LLC1 cells, or in the mammary gland with 2×10^5 E0771 cells. C57BL/6 nude mice were injected subcutaneously in the abdominal flank with 1×10^5B16F10 cells. […] Tumors were measured the tumors using a caliper every 2-3 days. Tumor volumes were calculated using the following formula: length×width×[(length×width)^0.5]×π/6. Mice were euthanized at humane endpoints or day 11-15 for tissue collection.
The mice were treated once a day for 5 consecutive days per week for 2 weeks. Tumors were measured the tumors using a caliper every 2-3 days. Tumor volumes were calculated using the following formula: length×width×[(length×width)^0.5]×π/6. Mice were euthanized at humane endpoints.
For anti-PD-1 treatment mouse model, 6-8 weeks old C57BL/6 mice were anesthetized with isoflurane, shaved the injection site, and then injected subcutaneously in the abdominal flank with 1×10^5 B16F10 for tumor development. […] In day 3, 6, 9, 12, and 15, 250 μg anti-PD-1 (BioXCell) or IgG control (BioXCell) was injected intraperitoneally per mouse. Tumors were measured the tumors using a caliper every 2-3 days. Tumor volumes were calculated using the following formula: length×width×[(length×width)^0.5]×π/6. […]

[3] = Extraction and quantification of TVA levels by NMR (mouse serum and TIF); type: in vivo; conditions: B16F10 tumor bearing mice, TVA-enriched diet; 1H NMR
[4] = test system: mouse primary CD8^+ T cells; assay: In vitro function of activated mouse primary CD8+ T cells (cytokines, Ki-67, apoptosis, p-CREB); type: cell-based
Procedure: For experiments with live/dead criteria, cells were first stained with Fixable Viability Dyes (FVD) (Thermo Fisher Scientific) according to the manufacturer's instructions. Subsequent surface marker staining was performed in Flow Cytometry Staining Buffer (Thermo Fisher Scientific). Intracellular staining for flow panels containing nuclear proteins was performed using the eBioscience FoxP3/Transcription Factor Staining Buffer Set (Thermo Fisher Scientific) according to the manufacturer's instructions. For intracellular staining of cytoplasmic proteins, the Fixation/Permeabilization Solution Kit (BD Biosciences) was used according to the manufacturer's instructions. […] The cell pellets were washed again with FACS buffer, centrifuged at 300×g for 5 minutes, and incubated with antibodies in FACS buffer for 45 minutes-1 hour at room temperature. […] Treatment with sulfosuccinimidyl oleate (SSO) was performed by incubating cells with 100 μM SSO for 24 hours.

primary CD4^+ T cells = assay: In vitro function of activated mouse primary CD4+ T cells; type: cell-based; conditions: TVA treatment in vitro
[5] = test system: mouse primary CD8^+ T cells; assay: cAMP level; type: cell-based; conditions: 20 μM TVA; 0, 20 minutes, 40 minutes, 2 hours
[6] = test system: anti-human CD19-CD28z-GFP CAR T cells; assay: CAR-T cell expansion assay; type: cell-based; conditions: 20 μM TVA
colon tumors = assay: Colon tumorigenesis in Apc+/fl; Cdx-2P-Cre-NLS mice; type: in vivo, mouse; conditions: gavage TVA 35 mg/kg bw daily×5 days for 4 wks; lipid rich diet
[7] = test system: tumor infiltrating immune cells; assay: Tumor immune cell analysis (macrophages, CD8, Tregs, DCs); type: in vivo; conditions: TVA treatment
influenza virus = assay: Influenza virus challenge of mice; type: in vivo, mouse
Excerpt: Control mice were born by mothers on normal diet, followed by normal milk feeding and normal diet since weaning.

human CD8^+ T cells = assay: KAS-seq, human CD8+ T cells; type: cell-based; conditions: 20 μM TVA, 20 min-2 h
Procedure: (§1) 500 mM N3-kethoxal was then supplemented into the media followed by brief, vigorous shaking to fully homogenize the solution. The 6-well plates were then moved into the cell incubator (37° C., 5% CO2) for 10 minutes to promote labeling of genomic single-stranded DNA (ssDNA). Cell suspensions were then transferred to 15 mL conical tubes and centrifuged at 300×g for 5 minutes at 4° C. The supernatant media was discarded, and genomic DNA was then extracted. […] Dual index libraries were constructed for high throughput sequencing using an Accel-NGS Methyl-seq DNA library kit and then sequenced at the Genomics Facility (University of Chicago) via Illumina NovaSeq 6000 (SP flowcell, 100 bp cassette) in two separate runs. […] M. musculus and H. sapiens CD8^+ T cell KAS-seq data were assessed separately.

mouse CD8^+ T cells [8] = assay: KAS-seq, mouse CD8+ T cells; type: cell-based; conditions: 20 μM TVA, 20 min-2 h
Procedure: as §1

Mouse CD4^+ T cell = assay: Second screen: IL-2 level of mouse CD4+ T cells
Mouse CD8^+ T cell = assay: Second screen: IL-2 level of mouse CD8+ T cells

CCCCCC/C=C/CCCCCCCCCC(=O)O [TVA, trans-vaccenic acid]
p-CREB level (phospho-antibody array) ([1]; 40 min, 2 h and 6 h post-TVA treatment, reduces at 24 h): Increased p-CREB level
p-STAT1 level (phospho-antibody array) ([1]; 2 h and 24 h TVA treatment): elevated
phosphorylation level of AKT (p-AKT) ([1]; 2 h post-TVA treatment): reduced phosphorylation level of AKT (p-AKT)
phosphorylation level of STAT3 (p-STAT3) ([1]; 2 h post-TVA treatment): increased phosphorylation level of STAT3 (p-STAT3)
p-AKT level ([1]; 24 h post-TVA treatment): increased p-AKT level at 24 h
gene expression (RNA-seq, GSEA) (mouse CD8^+ T cells [2]): enhances expression of the genes enriched in effector CD8^+ T cell function, E2F and MYC pathways
IL-2 production from human primary T cells (human primary T cell): enhances IL-2 production
body weights of mice (B16F10 tumor): did not alter body weights
average TVA level in tumor interstitial fluid (TIF) [3]: ~48 µM
average serum TVA level [3]: ~386 µM
TVA wash-off assay (TVAc vs TVAw) ([4]; 20 μM TVA 48 hours vs 24 hours then medium without TVA): effects are reversible
p-CREB level in CD8+ T cells, increasing concentrations ([4]; 8-Bromo-cAMP 0.01-100 μM or TVA 10-1000 μM, 24 hours): dose-dependent manner
reversal of SCFA-dependent suppression on CD8+ T cells ([4]; TVA 20 μM with SCFA agonists): able to reverse SCFA-dependent suppression on CD8^+ T cells
phosphorylation level of Lck (p-Lck) in CD8+ T cells ([4]; TVA treatment): does not alter phosphorylation level of Lck
phosphorylation of CREB in CD8+ T cells ([4]; TVA treatment): promotes phosphorylation of CREB
TNF-α and IFN-γ expression of primary CD8+ T cells ([4]; TVA treatment in vitro): increased expression of TNF-α and IFN-γ
suppression of CD8+ T cells by pre-treatment with 20 mM acetate (acetate first) ([4]; acetate 12 hours, then TVA 20 μM 12 hours): can be reversed by TVA at 20 μM
TVA level sufficient to reverse suppression of CD8+ T cells by acetate ([4]; acetate at 20 mM, TNF-α): ≤ 2 µM
IL-2 production of primary CD4+ T cells (primary CD4^+ T cells): increased IL-2 production
TNF-α, IFN-γ and apoptosis of primary CD4+ T cells (primary CD4^+ T cells): non-altered expression of TNF-α and IFN-γ or apoptosis
cAMP levels in CD8+ T cells [5]: elevates cAMP levels
in vitro expansion of CAR T cells ([6]; 3 lymphoma patients with age between 42 and 47): improves in vitro expansion
in vitro expansion of CAR T cells ([6]; elder patient): do not respond to TVA treatment
tumorigenesis and tumor progression (tumor multiplicity, pathology) (colon tumors): Suppresses Tumorigenesis and Tumor Progression
anti-tumor immunity (CD8+ T cells, dendritic cells, Treg, TAMs) [7]: enhances anti-tumor immunity
survival after influenza virus challenge (influenza virus; TVA exposure during fetal and infant stages, TVA diet since weaning): significantly increased survival
immune responses to viral exposure, male vs female (influenza virus; TVA mice): better immune responses to viral exposure compared to female TVA mice
GO enrichment of altered gene bodies (KAS-seq) (human CD8^+ T cells): G-protein coupled receptor (GPCR) activities among the top-enriched ontologies
GO enrichment of altered gene bodies (KAS-seq) (mouse CD8^+ T cells [8]): G-protein coupled receptor (GPCR) activities among the top-enriched ontologies
Mouse CD4^+ T cell IL-2 level changes after treatment (Mouse CD4^+ T cell): 155.6%
Mouse CD8^+ T cell IL-2 level changes after treatment (Mouse CD8^+ T cell): 193.6%
